Series [1] deals with nasal cavity, the affected site. Nature of the series: Effect on nose of cyclic peptides in which amino acid was substituted. As to conditions: for irritation upon nasal application: nasal application once/day.
Experimental: The obtained cyclic peptide was combined with purified water at 1, 5, 30, 100, 500 μg/ml and applied to the affected site. Formulations A to E in the tables refers to the cyclic peptide of 1, 5, 30, 100, 500 μg/ml, respectively.
Series [2] deals with affected site of psoriasis. Briefly: Effect of C-ring / CNP gel formulation on psoriasis. The format is in vivo, human. The note with it: psoriasis patient P6; after 3 days from the application. The source says:
Followings are the summary of the therapeutic effects for psoriasis cases. As described above, the C-ring gel formulation was applied to the affected site of psoriasis, and changes in symptoms before and after the application were observed. When possible, as a comparative example, the CNP gel formulation described above was applied onto another affected site of the same subject where the C-ring gel formulation had not been applied, and changes in symptoms before and after the application were observed. Examination result is given in tables below with subjects' age, sex and symptoms, and prescription for the subjects.

The subject of series [3] is normal subjects who have symptoms of lip roughness. Briefly: Lip mucosal condition after application of C-ring gel formulation. As to conditions: lip roughness (cases I1-I5); 1 μM, 1 application. The format is in vivo, human. From the text: To normal subjects who have symptoms of lip roughness, the C-ring gel formulation was applied and changes in lip mucosal conditions were observed and summarized in the following table. Changes in the mucosal condition were judged based on based on cenesthesic evaluation by the subject and objective observation by the inventor as a physician.

“Also recorded” adds a separate entry of the source. Positions of bridges follow the written chain, without caps; N, C: chain ends. Residues, ends and D or L forms follow the SMILES beside them. No end group written: not given here.

Consider 15 compounds from patent US20240376153A1, “CNP CYCLIC PEPTIDE, AND MEDICINE, EXTERNAL PREPARATION AND COSMETIC EACH CONTAINING SAID CYCLIC PEPTIDE” (Igisu Co., Ltd., priority 2015, published 2024).

As to `CC[C@H](C)[C@@H]1NC(=O)CNC(=O)[C@H](CO)NC(=O)[C@H](CCSC)NC(=O)[C@H](CO)NC(=O)CNC(=O)[C@H]([C@@H](C)CC)NC(=O)[C@H](CCCNC(=N)N)NC(=O)[C@H](CC(=O)O)NC(=O)[C@H](CC(C)C)NC(=O)[C@H](CCCCN)NC(=O)[C@H](CC(C)C)NC(=O)CNC(=O)[C@H](Cc2ccccc2)NC(=O)[C@@H](N)CSSC[C@@H](C(=O)O)NC(=O)CNC1=O` [SEQ ID NO: 19] (H-CFGLKLDRIGSMSGIGC-OH; disulfide 1-17; N-terminus and C-terminus assumed), the “irritation upon nasal application” value in series [1] (Formulation C = 30 μg/ml) is given as “There was no irritation upon nasal application”.

On to `CC[C@H](C)[C@@H]1NC(=O)[C@H](CCCNC(=N)N)NC(=O)[C@H](CC(=O)O)NC(=O)[C@H](CC(C)C)NC(=O)[C@H](CCCCN)NC(=O)[C@H](CC(C)C)NC(=O)CNC(=O)[C@H](Cc2ccccc2)NC(=O)[C@@H](N)CSSC[C@@H](C(=O)O)NC(=O)CNC(=O)[C@H](Cc2ccccc2)NC(=O)CNC(=O)[C@H](CO)NC(=O)[C@H](CCSC)NC(=O)[C@H](CO)NC(=O)CNC1=O` [SEQ ID NO: 21] (H-CFGLKLDRIGSMSGFGC-OH; disulfide 1-17; N-terminus and C-terminus assumed), for which, in series [1] (Formulation C = 30 μg/ml), the “irritation upon nasal application” value is “upon blowing. There was no irritation upon nasal”.

In the case of `CC[C@H](C)[C@@H]1NC(=O)[C@H](CCCNC(=N)N)NC(=O)[C@H](CC(=O)O)NC(=O)[C@H](CC(C)C)NC(=O)[C@H](CCCCN)NC(=O)[C@H](CC(C)C)NC(=O)CNC(=O)[C@H](Cc2ccccc2)NC(=O)[C@@H](N)CSSC[C@@H](C(=O)O)NC(=O)CNC(=O)[C@H](CC(C)C)NC(=O)CNC(=O)[C@H]([C@@H](C)O)NC(=O)[C@H](CCSC)NC(=O)[C@H]([C@@H](C)O)NC(=O)CNC1=O` [SEQ ID NO: 39] (H-CFGLKLDRIGTMTGLGC-OH; disulfide 1-17; N-terminus and C-terminus assumed), in series [1] (Formulation C = 30 μg/ml), the “irritation upon nasal application” value was “upon blowing. There was no irritation upon nasal”.

`CC[C@H](C)[C@@H]1NC(=O)[C@H](CCCNC(=N)N)NC(=O)[C@H](CC(=O)O)NC(=O)[C@H](CC(C)C)NC(=O)[C@H](CCCCN)NC(=O)[C@H](CC(C)C)NC(=O)CNC(=O)[C@H](Cc2ccccc2)NC(=O)[C@@H](N)CSSC[C@@H](C(=O)O)NC(=O)CNC(=O)[C@H](C(C)C)NC(=O)CNC(=O)[C@H](CO)NC(=O)[C@H](CCSC)NC(=O)[C@H](CO)NC(=O)CNC1=O` [SEQ ID NO: 18] (H-CFGLKLDRIGSMSGVGC-OH; disulfide 1-17; N-terminus and C-terminus assumed): the “irritation upon nasal application” value in series [1] (Formulation C = 30 μg/ml) is on record as “There was no irritation upon nasal application”.

Turning to `CC[C@H](C)[C@@H]1NC(=O)[C@H](CCCNC(=N)N)NC(=O)[C@H](CC(=O)O)NC(=O)[C@H](CC(C)C)NC(=O)[C@H](CCCCN)NC(=O)[C@H](CC(C)C)NC(=O)CNC(=O)[C@H](Cc2ccccc2)NC(=O)[C@@H](N)CSSC[C@@H](C(=O)O)NC(=O)CNC(=O)[C@H](CC(C)C)NC(=O)CNC(=O)[C@H](C)NC(=O)[C@H](CCSC)NC(=O)[C@H](CO)NC(=O)CNC1=O` [SEQ ID NO: 16] (H-CFGLKLDRIGSMAGLGC-OH; disulfide 1-17; N-terminus and C-terminus assumed), the “irritation upon nasal application” value in series [1] (Formulation C = 30 μg/ml) is “clear. There was no irritation upon nasal application”.

Consider `CC[C@H](C)[C@@H]1NC(=O)[C@H](CCCNC(=N)N)NC(=O)[C@H](CC(=O)O)NC(=O)[C@H](CC(C)C)NC(=O)[C@H](CCCCN)NC(=O)[C@H](CC(C)C)NC(=O)CNC(=O)[C@H](Cc2ccccc2)NC(=O)[C@@H](N)CSSC[C@@H](C(=O)O)NC(=O)CNC(=O)[C@H](CC(C)C)NC(=O)CNC(=O)[C@H](CO)NC(=O)[C@H](CCSC)NC(=O)[C@H](C)NC(=O)CNC1=O` [SEQ ID NO: 11] (H-CFGLKLDRIGAMSGLGC-OH; disulfide 1-17; N-terminus and C-terminus assumed), for which the “irritation upon nasal application” value in series [1] (Formulation C = 30 μg/ml) is “There was no irritation upon nasal application”.

On to “SEEQ ID NO: 3 (CFGLKLDRIGSMSGLGC; disulfide 1-17)”, for which, in series [1] (nasal application for comparison of right and left in one subject, Formulation A = 1 μg/ml, once/day), the “Post-treatment diagnostic skin impression” value is on record as “After 3 min, nasal discharge did not stop; also recorded: After 2 min, nose was not clear”.

Take `CC[C@H](C)[C@@H]1NC(=O)CNC(=O)[C@H]([C@@H](C)O)NC(=O)[C@H](CCSC)NC(=O)[C@H](CO)NC(=O)CNC(=O)[C@H]([C@@H](C)CC)NC(=O)[C@H](CCCNC(=N)N)NC(=O)[C@H](CC(=O)O)NC(=O)[C@H](CCSC)NC(=O)[C@H](CCCCN)NC(=O)[C@H](CC(C)C)NC(=O)[C@H](C)NC(=O)[C@H](Cc2ccccc2)NC(=O)[C@@H](N)CSSC[C@@H](C(=O)O)NC(=O)CNC1=O` [SEQ ID NO: 59] (H-CFALKMDRIGSMTGIGC-OH; disulfide 1-17; N-terminus and C-terminus assumed): in series [1] (Formulation D = 100 μg/ml), the “irritation upon nasal application” value is recorded as “upon blowing. There was no irritation upon nasal”.

In the case of `CC[C@H](C)[C@@H]1NC(=O)[C@H](CCCNC(=N)N)NC(=O)[C@H](CC(=O)O)NC(=O)[C@H](CC(C)C)NC(=O)[C@H](CCCCN)NC(=O)[C@H](CC(C)C)NC(=O)[C@H](C)NC(=O)[C@H](Cc2ccccc2)NC(=O)[C@@H](N)CSSC[C@@H](C(=O)O)NC(=O)CNC(=O)[C@H](CC(C)C)NC(=O)CNC(=O)[C@H]([C@@H](C)O)NC(=O)[C@H](CCSC)NC(=O)[C@H](CO)NC(=O)CNC1=O` [SEQ ID NO: 34] (H-CFALKLDRIGSMTGLGC-OH; disulfide 1-17; N-terminus and C-terminus assumed), the “irritation upon nasal application” value in series [1] (Formulation B = 5 μg/ml) is listed as “There was no irritation upon nasal application”.

For `CC[C@H](C)[C@@H]1NC(=O)[C@H](CCCNC(=N)N)NC(=O)[C@H](CC(=O)O)NC(=O)[C@H](CC(C)C)NC(=O)[C@H](CCCCN)NC(=O)[C@H](CC(C)C)NC(=O)CNC(=O)[C@H](Cc2ccccc2)NC(=O)[C@@H](N)CSSC[C@@H](C(=O)O)NC(=O)CNC(=O)[C@H](CC(C)C)NC(=O)CNC(=O)[C@H](CO)NC(=O)[C@H](CCSC)NC(=O)[C@H]([C@@H](C)O)NC(=O)CNC1=O` [SEQ ID NO: 10] (H-CFGLKLDRIGTMSGLGC-OH; disulfide 1-17; N-terminus and C-terminus assumed), the “irritation upon nasal application” value in series [1] (Formulation C = 30 μg/ml) is recorded as “There was no irritation upon nasal application”.

On to `CC[C@H](C)[C@@H]1NC(=O)[C@H](CCCNC(=N)N)NC(=O)[C@H](CC(=O)O)NC(=O)[C@H](CC(C)C)NC(=O)[C@H](CCCCN)NC(=O)[C@H](CC(C)C)NC(=O)[C@H](C)NC(=O)[C@H](Cc2ccccc2)NC(=O)[C@@H](N)CSSC[C@@H](C(=O)O)NC(=O)CNC(=O)[C@H](CC(C)C)NC(=O)CNC(=O)[C@H](CO)NC(=O)[C@H](CCSC)NC(=O)[C@H]([C@@H](C)O)NC(=O)CNC1=O` [SEQ ID NO: 33] (H-CFALKLDRIGTMSGLGC-OH; disulfide 1-17; N-terminus and C-terminus assumed), for which the “irritation upon nasal application” value in series [1] (Formulation C = 30 μg/ml) was “There was no irritation upon nasal application”.

For `CC[C@H](C)[C@@H]1NC(=O)CNC(=O)[C@H]([C@@H](C)O)NC(=O)[C@H](CCSC)NC(=O)[C@H](CO)NC(=O)CNC(=O)[C@H]([C@@H](C)CC)NC(=O)[C@H](CCCNC(=N)N)NC(=O)[C@H](CC(=O)O)NC(=O)[C@H](CCSC)NC(=O)[C@H](CCCCN)NC(=O)[C@H](CC(C)C)NC(=O)CNC(=O)[C@H](Cc2ccccc2)NC(=O)[C@@H](N)CSSC[C@@H](C(=O)O)NC(=O)CNC1=O` [SEQ ID NO: 53] (H-CFGLKMDRIGSMTGIGC-OH; disulfide 1-17; N-terminus and C-terminus assumed), the “irritation upon nasal application” value in series [1] (Formulation C = 30 μg/ml) is given as “upon blowing. There was no irritation upon nasal”.

Regarding `CC[C@H](C)[C@@H]1NC(=O)CNC(=O)[C@H]([C@@H](C)O)NC(=O)[C@H](CCSC)NC(=O)[C@H](CO)NC(=O)CNC(=O)[C@H]([C@@H](C)CC)NC(=O)[C@H](CCCNC(=N)N)NC(=O)[C@H](CC(=O)O)NC(=O)[C@H](CC(C)C)NC(=O)[C@H](CCCCN)NC(=O)[C@H](CC(C)C)NC(=O)CNC(=O)[C@H](Cc2ccccc2)NC(=O)[C@@H](N)CSSC[C@@H](C(=O)O)NC(=O)CNC1=O` [SEQ ID NO: 41] (H-CFGLKLDRIGSMTGIGC-OH; disulfide 1-17; N-terminus and C-terminus assumed), the “irritation upon nasal application” value in series [1] (Formulation C = 30 μg/ml) was “There was no irritation upon nasal application”.

Take `CC[C@H](C)[C@@H]1NC(=O)CNC(=O)[C@H](CO)NC(=O)[C@H](CCSC)NC(=O)[C@H]([C@@H](C)O)NC(=O)CNC(=O)[C@H]([C@@H](C)CC)NC(=O)[C@H](CCCNC(=N)N)NC(=O)[C@H](CC(=O)O)NC(=O)[C@H](CC(C)C)NC(=O)[C@H](CCCCN)NC(=O)[C@H](CC(C)C)NC(=O)CNC(=O)[C@H](Cc2ccccc2)NC(=O)[C@@H](N)CSSC[C@@H](C(=O)O)NC(=O)CNC1=O` [SEQ ID NO: 40] (H-CFGLKLDRIGTMSGIGC-OH; disulfide 1-17; N-terminus and C-terminus assumed): in series [1] (Formulation C = 30 μg/ml), the “irritation upon nasal application” value is on record as “There was no irritation upon nasal application”.

Turning to “Gly-Leu-Ser-Lys-Gly-Cys-Phe-Gly-Leu-Lys-Leu-Asp-Arg-Ile-Gly-Ser-Met-Ser-Gly-Leu-Gly-Cys (GLSKGCFGLKLDRIGSMSGLGC; disulfide 6-22; listed as Homo sapiens) [CNP, human wild-type C-type natriuretic peptide (American Peptide Company)]”, the “Results of two-sided application on lower thighs (FIG. 1)” value in series [2] was “scales became inconspicuous but still remains, and erythema and infiltration were improved only a little”. The “Post-application Symptoms” value in series [3] is “remained on corner of mouth”.
